Measurements as given in patent publication US10004730B2, “Small molecules targeting androgen receptor nuclear localization and/or level in prostate cancer” (University of Pittsburgh-Of the Commonwealth System of …, priority 2011, dated 2018).

Key:
Format in all cases: cell-based
C4-2 cells = assay: Cell survival, crystal violet staining, C4-2; conditions: 48 hrs
Procedure: FIGS. 8A and 8B. Effect of SID 14730725 and SID 3712502 on survival of PC3 (FIG. 8A) and C4-2 cells (FIG. 8B). PC3 or C4-2 cells were plated in 12-well plates at 2,500 cell per well in RPMI 1640 complete medium. After 24 hrs, the cells were treated with SID 14730725 or SID 3712502 at the indicated concentrations for 48 hrs. The wells were washed with PBS thrice and fixed in 0.5% crystal Violet in methanol. C=control; treated with vehicle DMSO.

AR(1-665) = assay: PSA-luciferase reporter, AR(1-665) lacking LBD, PC3 cells; conditions: 10 μM, 24 hours
Procedure: FIGS. 13A-C. Effect of SID 3712502 on the expression of AR and PSA in 22Rv1 (FIG. 13A) cells. […] The cells in RPMI 1640 complete medium were treated with SID 3712502 or vehicle DMSO at the indicated concentrations (uM) for 48 h. The cells were then harvested in RIPA buffer for Western blot analysis using antibodies for AR, PSA, and GAPDH. GAPDH was included as a loading control. FIG. 13B. SID 3712502 inhibits AR transactivation of PSA-luciferase reporter. C4-2 cells were transfected with PSA6.1-Luc, GFP-AR, and pRL-CMV and then treated with indicated doses of SID 3712502 for 24 hours. FIG. 13C. SID 3712502 inhibits transactivation of PSA-luciferase reporter by AR(1-665), which lacks LBD. PC3 cells were transfected with GFP-NAR and PSA6.1 Luc overnight prior to treatment with 10 μM SID 3712502 (SID) or DMSO (C) for 24 hours. For luciferase assays, cells were lysed with passive lysis buffer (Promega) and both Firefly and Renilla luciferase activities were read using a Dual-Luciferase Reporter Assay kit (Promega) on a LmaxII384 luminometer (Molecular Devices). Firefly luciferase values were normalized to Renilla (pRL-CMV) or protein of cell lysates. Plotted values represent averaged normalized Firefly luciferase activities, each performed in triplicate, relative to DMSO control. One-way ANOVA was performed with a Bonferroni's Multiple Comparison posttest *** p<0.0001 (C). […]

GFP-AR = biological target: T1, GFP-AR (Homo sapiens, UniProt P10275); assay: Localization of transiently transfected GFP-AR by fluorescence microscopy; conditions: transfected C4-2 cells, complete RPMI with 10% FBS, overnight treatment
T1 construct: expressed in transfected cells; also PC3 and LNCaP (transient)
T1 sequence (P10275 1-920): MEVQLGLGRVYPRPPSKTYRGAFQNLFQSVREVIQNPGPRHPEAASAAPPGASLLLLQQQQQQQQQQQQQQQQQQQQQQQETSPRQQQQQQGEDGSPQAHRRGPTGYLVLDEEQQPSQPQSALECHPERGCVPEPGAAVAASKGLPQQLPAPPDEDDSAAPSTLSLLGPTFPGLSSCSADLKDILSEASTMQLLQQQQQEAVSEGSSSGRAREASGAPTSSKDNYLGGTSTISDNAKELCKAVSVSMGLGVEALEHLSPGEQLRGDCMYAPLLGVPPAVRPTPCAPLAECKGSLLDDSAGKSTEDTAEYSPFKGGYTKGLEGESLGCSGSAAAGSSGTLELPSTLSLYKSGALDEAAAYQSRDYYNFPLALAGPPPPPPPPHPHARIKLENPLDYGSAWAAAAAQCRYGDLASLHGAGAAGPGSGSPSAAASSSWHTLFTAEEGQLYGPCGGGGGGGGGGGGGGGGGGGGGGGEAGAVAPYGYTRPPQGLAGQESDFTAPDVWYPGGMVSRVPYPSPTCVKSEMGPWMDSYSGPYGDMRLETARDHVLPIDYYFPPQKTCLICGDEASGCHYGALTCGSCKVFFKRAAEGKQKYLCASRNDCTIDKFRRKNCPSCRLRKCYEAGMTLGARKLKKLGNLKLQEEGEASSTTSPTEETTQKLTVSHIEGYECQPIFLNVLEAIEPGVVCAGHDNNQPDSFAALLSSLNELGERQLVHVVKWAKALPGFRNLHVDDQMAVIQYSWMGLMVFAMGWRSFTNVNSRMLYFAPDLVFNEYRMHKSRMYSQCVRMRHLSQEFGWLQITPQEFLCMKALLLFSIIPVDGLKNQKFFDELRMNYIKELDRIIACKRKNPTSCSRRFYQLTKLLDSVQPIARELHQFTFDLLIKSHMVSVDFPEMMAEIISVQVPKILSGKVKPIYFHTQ
Procedure: FIGS. 2A and 2B. Localization of GFP-AR in AR-negative PC3, androgen-sensitive LNCaP, and CRPC C4-2 cells. […] PC3, LNCaP, and C4-2 cells were transfected with GFP-AR and localization was assessed in ligand-free conditions or in the presence of mibolerone by fluorescence microscopy within 24 hours of transfection. The results in FIG. 2B are from five transfections for each cell line in the absence of androgen. At least 50 cells were counted after each transfection. Error bars represent ±SEM.
FIGS. 3A and 3B. […] FIG. 3A. […] Localization was assessed by fluorescence microscopy 4 hours after treatment. FIG. 3B.
FIGS. 6A, 6B, 6C and 6D. FIG. 6A. […] FIG. 6B. […] C4-2 cells were transfected with GFP-AR and subcellular localization of GFP-AR was determined after overnight treatment using fluorescent microscopy. FIG. 6C. Quantitative analysis of results in FIG. 6B. […] FIG. 6D. […] Endogenous AR was detected by immunofluorescent staining using AR antibody N-20 (Santa Cruz Biotechnology). Nuclei were stained with Hoechst.
A prerequisite for AR transcriptional activity is its nuclear localization. To determine whether the subcellular localization of AR was altered during the progression to castration-resistance, AR-negative PC3 prostate cancer cells, androgen-sensitive LNCaP cells and castration-resistant C4-2 cells were transfected with AR tagged to green fluorescent protein (GFP) and localization was assessed by fluorescence microscopy in hormone-free conditions.
Hsp90 plays an important role in ligand-induced AR nuclear translocation. […] To determine if the effect of hsp90 inhibition on endogenous AR in C4-2 cells was similar to its effect on transfected GFP-AR, immunofluorescence experiments were performed.

## Cc1cccc(N2CCN(C(=O)CSCc3c(C)noc3C)CC2)c1C [SID 3712502, 2-[(3,5-dimethyl-1,2-oxazol-4-yl)methylsulfanyl]-1-[4-(2,3-dimethylphenyl)piperazin-1-yl]ethanone]
C4-2 cells
  cytotoxicity: little or no cytotoxicity
AR(1-665)
  transactivation activity of AR(1-665) (PSA-luciferase): can inhibit the transactivation activity
GFP-AR
  GFP-AR nuclear localization: effectively inhibited
